Read-outs that look alike come from different tables or passages of the source.
What was measured:
caspase 8 = assay: Apoptotic biomarker ELISA, caspase 8 in SW620 cells; assay type: cell-based, human; conditions: 48 h, IC50 concentration, versus DMSO control
Source text: (§1) Afterwards, cells were scraped and lysed with Cell Lysis Buffer (1X, Ref. #9803). The supernatant was used for the determination of apoptotic biomarkers after the treatment with the hybrid molecules. Enzyme-linked immunosorbent assay (ELISA) kits were provided by Elabscience Biotechnology Co., (Wuhan, Hubei, China) (caspase-8) and Cell-Signaling Technology (Danvers, MA, USA) (caspase-3 and p53), following the manufacturer’s instructions.

SW620 cells [1] = assay: Cell death induction (Annexin V/FITC and PI), SW620; conditions: 48 h
Procedure: SW480 and SW620 cells were treated for 48 h and further collected by scraping. After centrifugation, the cell pellet was resuspended in Annexin V/FITC–PI and incubated in darkness for 20 min. Data were obtained through flow cytometry and analyzed with FlowJo 7.6.2 (Ashland, OR, USA). […] Cells with positive staining for PI were considered dead cells, late apoptotic cells, necroptotic cells or secondary necrotic cells. All assays were repeated twice [56].

SW620 [2] = assay: Antiproliferative activity (sulforhodamine B), SW620; assay type: cell-based, human; conditions: dose- and time-dependent, from day 2 above 12.5 µM, from day 4 at 6.25 µM
Procedure: (§2) Briefly, cells were seeded at 20,000 cells/well (for cytotoxicity assay) and 2500 cells/well (for the antiproliferative test) in 96-well tissue culture plates, incubating at 37 °C in a humidified atmosphere with 5% CO2. After the adaptation time (24 h), cells were treated with increasing concentrations of the hybrid molecules or DMSO (1%). At the end of each treatment, cells were fixed with trichloroacetic acid (50% v/v; MERCK) for one hour at 4 °C. Subsequently, cell proteins were stained with SRB (0.4% w/v; Sigma-Aldrich, United States) and washed with acetic acid (1%). After drying at room temperature, Tris-base (10 mM) was added to solubilize protein bound stain. Absorbance was read in a microplate reader (Mindray MR-96A) at 492 nm. All experiments were performed at least in duplicate.

SW620 cells [3] = assay: Cell cycle distribution (PI, flow cytometry), SW620; assay type: cell-based, human; conditions: 48 h, IC50 concentration, versus DMSO control
Procedure: (§3) Cell cycle analysis was evaluated by flow cytometry using propidium iodide (PI). This experiment was carried out as previously described by Nicoletti et al. (1991). Then, 48 h after treatment with the IC50 value of the hybrids 4a, 4g and DMSO (1%) as a vehicle control, cells were collected by scraping and centrifugation, resuspending the cell pellet in a versene buffer. Thereafter, cells were fixed with 1.8 mL cold ethanol (70%) at 4 °C overnight. Alcohol was removed by subsequent washing twice with versene buffer. The final pellet was resuspended in 300 µL of PBS with 0.25 mg/mL RNAse (Type I-A, Sigma-Aldrich, Germany) and 0.1 mg/mL PI and incubated for 30 min in the dark at room temperature. FACS Canto II flow cytometer (BD Biosciences, USA) was used to read the PI fluorescence of 10,000 events. The analysis of data was performed with the software FlowJo 7.6.2 (Ashland, OR, USA).

SW480 [4] = assay: Sulforhodamine B cytotoxicity assay, SW480; assay type: cell-based, human; conditions: 48 h; for IC50: Homo sapiens, SW480, mean ± SE
Procedure: (§4) Two colon cancer cells (SW480 and SW620) and non-malignant cell lines (human keratinocytes, HaCaT; chinese hamster ovary, CHO-K1) were obtained from The European Collection of Authenticated Cell Cultures (ECACC, England). For biological evaluations, cells were cultured in Dulbecco’s Modified Eagle Medium, supplemented with 10% heat-inactivated (56 °C) horse serum, 1% penicillin/streptomycin and 1% non-essential amino acids (Gibco Invitrogen, Carlsbad, CA, USA). During the treatments, the serum was reduced to 3%, and the medium was supplemented with insulin ([…]) transferrin ([…]) and selenium (5 ng/mL) (ITS-defined medium; Gibco, Invitrogen, Carlsbad, USA). To avoid Mycoplasma spp. contamination, cell cultures were regularly tested by polymerase chain reaction.
as §2

caspase-3 = assay: Apoptotic biomarker ELISA, caspase-3 in SW620 cells; assay type: cell-based, human; conditions: 48 h, IC50 concentration, versus DMSO control
Source text: as §1

SW620 cells [5] = assay: Mitochondrial membrane potential and plasma membrane integrity (DiOC6/PI), SW620; assay type: cell-based, human; conditions: 48 h, IC50 concentration
Procedure: (§5) The fluorescent dyes DiOC6 (3,3′-dihexyloxacarbocyanine iodide, Thermo Fisher Scientific, Waltham, MA, USA) and propidium iodide (PI) were used to evaluate possible changes in mitochondrial membrane potential induced by the hybrid molecules. Then, 2.5 × 10^5 cells/well were seeded in 6-well tissue culture plates and allowed to grow for 24 h. Then, these were treated with hybrids 4a and 4g (with the IC50 value for each compound). Cells were harvested by scrapping 48 h after treatment, stained with DiOC6 and propidium iodide (PI) at room temperature for 30 min in darkness. Flow cytometric analysis of 10,000 events was carried out to quantify cells with mitochondrial depolarization, excitation at 488 nm and detection of the emission with the green (530/15 nm) and the red (610/20 nm) filters.

SW480 cells [6] = assay: Mitochondrial membrane potential and plasma membrane integrity (DiOC6/PI), SW480; assay type: cell-based, human; conditions: 48 h, IC50 concentration
Procedure: as §5

SW480 cells [7] = assay: Cell death induction (Annexin V/FITC and PI), SW480; assay type: cell-based, human; conditions: 48 h
Source text: All assays were repeated twice.

[8] = system: tumor suppressor protein p53; assay: Apoptotic biomarker ELISA, p53 in SW620 cells; assay type: cell-based, human; conditions: 48 h, IC50 concentration, versus DMSO control
Source text: as §1

SW480 cells [9] = assay: Cell cycle distribution (PI, flow cytometry), SW480; assay type: cell-based, human; conditions: 48 h, IC50 concentration
Procedure: as §3

SW480 [10] = assay: Antiproliferative activity (sulforhodamine B), SW480; assay type: cell-based, human; conditions: dose- and time-dependent, from day 2 above 12.5 µM, from day 4 at 6.25 µM
Procedure: as §2

HaCaT = assay: Sulforhodamine B cytotoxicity assay, HaCaT; assay type: cell-based, human; conditions: Homo sapiens, HaCaT; 48 h; mean ± SE; non-malignant cells
Procedure: as §4, §2

CHO-K1 = assay: Sulforhodamine B cytotoxicity assay, CHO-K1; assay type: cell-based, chinese hamster; conditions: Cricetulus griseus, CHO-K1; 48 h; mean ± SE; non-malignant cells
Procedure: as §4, §2

SW620 [11] = assay: Sulforhodamine B cytotoxicity assay, SW620; assay type: cell-based, human; conditions: 48 h; for IC50: Homo sapiens, SW-620, mean ± SE
Procedure: as §4, §2

[12] = system: human gastric cancer cell line (SGC-7901); parameters: method as in doi:10.1039/C6MD00268D; conditions: cited from earlier work
normal VERO cells = conditions: cited from earlier work
LU-1 = conditions: cited from earlier work
RD = conditions: cited from earlier work
FL = conditions: cited from earlier work
Hep-G2 = conditions: cited from earlier work

O=c1[nH]c(=O)n(Cc2cn(CCOc3cc(O)c4c(=O)c(-c5ccc(O)cc5)coc4c3)nn2)cc1F [4a, 5-fluoro-1-((1-(3-((5-hydroxy-3-(4-hydroxyphenyl)-4-oxo-4H-chromen-7-yl)oxy)ethyl)-1H-1,2,3-triazol-4-yl)methyl)pyrimidine-2,4(1H,3H)-dione]
Protein levels of caspase 8 (caspase 8): significant increase in the levels of caspase 8
Plasma membrane integrity / cell death (SW620 cells [1]): caused a loss in membrane integrity
Antiproliferative activity (cell viability) (SW620 [2]): significant decrease in the percentages of cell viability
Effect on cell cycle distribution (SW620 cells [3]): important decrease in the population of cells in S-phase with a slight increase in G0/G1
Selectivity Index (SI) CHO-K1/SW480 (SW480 [4]): 1.13
Selectivity Index (SI) HaCaT/SW480 (SW480 [4]): 1.03
IC50 (SW480 [4]): 62.7 ± 7.26 µM
Protein levels of caspase-3 (caspase-3): significant increase in the active form of caspase-3
Change in mitochondrial membrane potential (SW620 cells [5]): do not induce significant changes in mitochondrial membrane potential
Change in mitochondrial membrane potential (SW480 cells [6]): do not induce significant changes in mitochondrial membrane potential
Plasma membrane integrity / cell death (SW480 cells [7]): caused a loss in membrane integrity
Protein levels of tumor suppressor protein Tp53 [8]: important changes in the levels of the tumor suppressor protein Tp53
Cell cycle distribution G0/G1 (SW480 cells [9]; representative histogram): 46.4%
Cell cycle distribution G2/M (SW480 cells [9]; representative histogram): 15.4%
Cell cycle distribution S-phase (SW480 cells [9]; representative histogram): 36.4%
Cell cycle distribution Sub G0/G1 (SW480 cells [9]; representative histogram): 1.8%
Effect on cell cycle distribution (SW480 cells [9]; versus DMSO control): important decrease in the population of G0/G1 after treatment with hybrid 4a, with a consequent increase in S-phase and G2/M
Antiproliferative activity (cell viability) (SW480 [10]): significant decrease in the percentages of cell viability
IC50 (HaCaT): 64.6 ± 1.07 µM
IC50 (CHO-K1): 71.1 ± 10.5 µM
Selectivity Index (SI) CHO-K1/620 (SW620 [11]): 1.41
Selectivity Index (SI) HaCaT/SW620 (SW620 [11]): 1.28
IC50 (SW620 [11]): 50.6 ± 1.33 µM

O=c1[nH]c(=O)n(Cc2cn(CCCOc3cc(O)c4c(=O)c(-c5ccc(O)cc5)coc4c3)nn2)cc1F [4b, 5-fluoro-1-((1-(3-((5-hydroxy-3-(4-hydroxyphenyl)-4-oxo-4H-chromen-7-yl)oxy)propyl)-1H-1,2,3-triazol-4-yl)methyl)pyrimidine-2,4(1H,3H)-dione]
IC50 (SW480 [4]): > 100 µM
IC50 (HaCaT): > 100 µM
IC50 (CHO-K1): > 100 µM
melting point: 175 to 178 °C
IC50 (SW620 [11]): > 100 µM

O=c1[nH]cc(F)c(=O)[nH]1 [5-FU, 5-fluorouracil]
selectivity index SGC-7901 versus GES-1 ([12]; at 50 µM): 0.88
selectivity index SGC-7901 versus GES-1 ([12]; at the concentration of 10 µM): 0.74
IC50 (normal VERO cells): 3.33 µM
Selectivity Index (SI) CHO-K1/SW480 (SW480 [4]): 0.99
Selectivity Index (SI) HaCaT/SW480 (SW480 [4]): 0.68

CC(C)c1ccc(/C=C/C(=O)c2cc(Cn3cc(F)c(=O)[nH]c3=O)ccc2O)cc1 [B]
IC50 (normal VERO cells): 15 µM
IC50 (LU-1): 11.9 µM
IC50 (RD): 10.8 µM
IC50 (FL): 8.17 µM
IC50 (Hep-G2): 4.68 µM

O=C(Cn1cc(F)c(=O)[nH]c1=O)OCC[n+]1ccc(/C=C/c2c[nH]c3ccccc23)cc1 [C1]
selectivity index SGC-7901 versus GES-1 ([12]; at the concentration of 10 µM): 1.16

O=C(Cn1cc(F)c(=O)[nH]c1=O)NCC[n+]1ccc(/C=C/c2c[nH]c3ccccc23)cc1 [C2]
selectivity index SGC-7901 versus GES-1 ([12]; at 50 µM): 1.20
selectivity index SGC-7901 versus GES-1 ([12]; at the concentration of 10 µM): 1.08

O=c1c(-c2ccc(O)cc2)coc2cc(O)cc(O)c12 [Genistein]
Selectivity Index (SI) CHO-K1/SW480 (SW480 [4]): 1.01
Selectivity Index (SI) HaCaT/SW480 (SW480 [4]): 0.95
IC50 (SW480 [4]): 48.1 ± 3.03 µM
IC50 (HaCaT): 45.9 ± 1.97 µM
IC50 (CHO-K1): 48.4 ± 4.13 µM
Selectivity Index (SI) CHO-K1/620 (SW620 [11]): 0.64
Selectivity Index (SI) HaCaT/SW620 (SW620 [11]): 0.63
IC50 (SW620 [11]): 75.8 ± 5.83 µM

Source: publication PMC9606943, “Synthesis and Chemopreventive Potential of 5-FU/Genistein Hybrids on Colorectal Cancer Cells” (Pharmaceuticals, 2022)
